These results are taken from US8269015B2, “4-azetidinyl-1-heteroaryl-cyclohexane antagonists of CCR2” (Janssen Pharmaceutica N.V., priority 2009, dated 2012).

One may read the IC50 as the concentration that inhibits the measured activity by half.

The assay deals with T1, CCR2 (Homo sapiens, UniProt P41597).
T1 construct: host or cells: THP-1 (human monocytic cell line)
T1 sequence (P41597 1-360 isoform P41597-2): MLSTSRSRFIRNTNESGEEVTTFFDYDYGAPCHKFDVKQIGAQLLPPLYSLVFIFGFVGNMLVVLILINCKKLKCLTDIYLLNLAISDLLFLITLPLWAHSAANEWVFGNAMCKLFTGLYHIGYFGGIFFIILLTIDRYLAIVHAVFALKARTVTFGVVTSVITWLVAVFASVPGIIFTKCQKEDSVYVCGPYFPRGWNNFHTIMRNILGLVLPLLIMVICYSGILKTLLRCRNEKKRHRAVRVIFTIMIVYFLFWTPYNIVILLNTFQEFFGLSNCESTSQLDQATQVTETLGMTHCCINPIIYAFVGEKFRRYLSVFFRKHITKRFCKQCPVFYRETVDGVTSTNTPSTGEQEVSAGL
Briefly: MCP-1 Receptor Binding Assay in THP-1 Cells (125I labeled MCP-1). The note with it: 0.5 nM 125I labeled MCP-1, 2 hours at 30° C., read-out: Inhibition of MCP-1 Binding IC50, CCR2 Binding. The method, then: Compounds of the invention were subjected to various representative biological tests. […] MCP-1 Receptor Binding Assay in THP-1 Cells
Human monocytic cell line THP-1 cells were obtained from American Type Culture Collection (Manassas, Va., USA). […] The cell density was maintained […].
1 μM cold MCP-1 was used for nonspecific binding.
In the case of `O=C(CNC(=O)c1cccc(C(F)(F)F)c1)NC1CN(C2CCC(c3noc(N4CCCC4)n3)CC2)C1` (mixture of isomers) [Example 59, N-({1-[4-(5-Pyrrolidin-1-yl-[1,2,4]oxadiazol-3-yl)-cyclohexyl]-azetidin-3-ylcarbamoyl}-methyl)-3-trifluoromethyl-benzamide], the 50% inhibitory concentration (IC50) was 0.4 µM.
For `Cc1cc(=O)[nH]c(C2CCC(N3CC(NC(=O)CNC(=O)c4cccc(C(F)(F)F)c4)C3)CC2)n1` (mixture of isomers) [Example 60, N-({1-[4-(4-Methyl-6-oxo-1,6-dihydro-pyrimidin-2-yl)-cyclohexyl]-azetidin-3-ylcarbamoyl}-methyl)-3-trifluoromethyl-benzamide] the value was 3.9 µM; for `O=C(CNC(=O)c1cccc(C(F)(F)F)c1)NC1CN(C2CCC(c3nc4c(c(=O)[nH]3)CCCC4)CC2)C1` (mixture of isomers) [Example 61, N-({1-[4-(4-Oxo-3,4,5,6,7,8-hexahydro-quinazolin-2-yl)-cyclohexyl]-azetidin-3-ylcarbamoyl}-methyl)-3-trifluoromethyl-benzamide], 4 µM.
As for `O=C(CNC(=O)c1cccc(C(F)(F)F)c1)NC1CN(C2CCC(c3nsc(Cl)n3)CC2)C1` (mixture of isomers) [Example 62, N-({1-[4-(5-Chloro-[1,2,4]thiadiazol-3-yl)-cyclohexyl]-azetidin-3-ylcarbamoyl}-methyl)-3-trifluoromethyl-benzamide], the concentration for half-maximal inhibition (IC50) came to 0.39 µM.
To `O=C(CNC(=O)c1cccc(C(F)(F)F)c1)NC1CN(C2CCC(c3nc4n(n3)CCCC4)CC2)C1` (mixture of isomers) [Example 63, N-({1-[4-(5,6,7,8-Tetrahydro-[1,2,4]-triazolo[1,5-a]pyridin-2-yl)-cyclohexyl]-azetidin-3-ylcarbamoyl}-methyl)-3-trifluoromethyl-benzamide] belongs 1.5 µM.
Regarding `COc1ccc(C2CCC(N3CC(NC(=O)CNC(=O)c4cccc(C(F)(F)F)c4)C3)CC2)cn1` (single isomer, unassigned) [Example 1a, N-({1-[4-(6-Methoxy-pyridin-3-yl)-cyclohexyl]-azetidin-3-ylcarbamoyl}-methyl)-3-trifluoromethyl-benzamide], the IC50 came out at 0.007 µM.
To `Nc1cccc(C2CCC(N3CC(NC(=O)CNC(=O)c4cccc(C(F)(F)F)c4)C3)CC2)n1` (single isomer, unassigned) [Example 22a, N-({1-[4-(6-Amino-pyridin-2-yl)-cyclohexyl]-azetidin-3-ylcarbamoyl}-methyl)-3-trifluoromethyl-benzamide] belongs 0.025 µM.
To `CNc1cccc(C2CCC(N3CC(NC(=O)CNC(=O)c4cccc(C(F)(F)F)c4)C3)CC2)n1` (single isomer, unassigned) [Example 23a, N-({1-[4-(6-Methylamino-pyridin-2-yl)-cyclohexyl]-azetidin-3-ylcarbamoyl}-methyl)-3-trifluoromethyl-benzamide] belongs 0.072 µM; to `Nc1ccncc1C1CCC(N2CC(NC(=O)CNC(=O)c3cccc(C(F)(F)F)c3)C2)CC1` (single isomer, unassigned) [Example 27a, N-({1-[4-(4-Amino-pyridin-3-yl)-cyclohexyl]-azetidin-3-ylcarbamoyl}-methyl)-3-trifluoromethyl-benzamide], 2.7 µM; to `Nc1ccc(C2CCC(N3CC(NC(=O)CNC(=O)c4cccc(C(F)(F)F)c4)C3)CC2)cn1` (single isomer, unassigned) [Example 30a, N-({1-[4-(6-Amino-pyridin-3-yl)-cyclohexyl]-azetidin-3-ylcarbamoyl}-methyl)-3-trifluoromethyl-benzamide], 0.189 µM.
To `Nc1ncccc1C1CCC(N2CC(NC(=O)CNC(=O)c3cccc(C(F)(F)F)c3)C2)CC1` (single isomer, unassigned) [Example 31a, N-({1-[4-(2-Amino-pyridin-3-yl)-cyclohexyl]-azetidin-3-ylcarbamoyl}-methyl)-3-trifluoromethyl-benzamide] belongs 0.15 µM; to `O=C(CNC(=O)c1cccc(C(F)(F)F)c1)NC1CN(C2CCC(c3ccc(=O)[nH]c3)CC2)C1` (single isomer, unassigned) [Example 37a, N-({1-[4-(6-Oxo-1,6-dihydro-pyridin-3-yl)-cyclohexyl]-azetidin-3-ylcarbamoyl}-methyl)-3-trifluoromethyl-benzamide], 0.17 µM.
Regarding `Cn1cc(C2CCC(N3CC(NC(=O)CNC(=O)c4cccc(C(F)(F)F)c4)C3)CC2)ccc1=O` (single isomer, unassigned) [Example 38a, N-({1-[4-(1-Methyl-6-oxo-1,6-dihydro-pyridin-3-yl)-cyclohexyl]-azetidin-3-ylcarbamoyl}-methyl)-3-trifluoromethyl-benzamide], the IC50 was 0.046 µM.
To `CC(C)n1cc(C2CCC(N3CC(NC(=O)CNC(=O)c4cccc(C(F)(F)F)c4)C3)CC2)ccc1=O` (single isomer, unassigned) [Example 40a, N-({1-[4-(1-Isopropyl-6-oxo-1,6-dihydro-pyridin-3-yl)-cyclohexyl]-azetidin-3-ylcarbamoyl}-methyl)-3-trifluoromethyl-benzamide] belongs 0.33 µM; to `O=C(CNC(=O)c1cccc(C(F)(F)F)c1)NC1CN(C2CCC(c3ccc(=O)n(CC(F)(F)F)c3)CC2)C1` (single isomer, unassigned) [Example 42a, N-[(1-{4-[6-Oxo-1-(2,2,2-trifluoro-ethyl)-1,6-dihydro-pyridin-3-yl]-cyclohexyl}-azetidin-3-ylcarbamoyl)-methyl]-3-trifluoromethyl-benzamide], 0.15 µM; to `Cc1cc(C2CCC(N3CC(NC(=O)CNC(=O)c4cccc(C(F)(F)F)c4)C3)CC2)c[nH]c1=O` (single isomer, unassigned) [Example 44a, N-({1-[4-(5-Methyl-6-oxo-1,6-dihydro-pyridin-3-yl)-cyclohexyl]-azetidin-3-ylcarbamoyl}-methyl)-3-trifluoromethyl-benzamide], 0.25 µM.
For the molecule `Cc1cc(C2CCC(N3CC(NC(=O)CNC(=O)c4cccc(C(F)(F)F)c4)C3)CC2)cn(C)c1=O` (single isomer, unassigned) [Example 45a, N-({1-[4-(1,5-Dimethyl-6-oxo-1,6-dihydro-pyridin-3-yl)-cyclohexyl]-azetidin-3-ylcarbamoyl}-methyl)-3-trifluoromethyl-benzamide], the IC50 came out at 0.061 µM.
For `Cn1ccc(C2CCC(N3CC(NC(=O)CNC(=O)c4cccc(C(F)(F)F)c4)C3)CC2)cc1=O` (single isomer, unassigned) [Example 46a, N-({1-[4-(1-Methyl-2-oxo-1,2-dihydro-pyridin-4-yl)-cyclohexyl]-azetidin-3-ylcarbamoyl}-methyl)-3-trifluoromethyl-benzamide] the value was 0.55 µM; for `COC(=O)Nc1ncc(C2CCC(N3CC(NC(=O)CNC(=O)c4cccc(C(F)(F)F)c4)C3)CC2)s1` (single isomer, unassigned) [Example 51a, [5-(4-{3-[2-(3-Trifluoromethyl-benzoylamino)-acetylamino]-azetidin-1-yl}-cyclohexyl)-thiazol-2-yl]-carbamic acid methyl ester], 0.34 µM.
